The record followed here is publication PMC9268591, “Anti-Inflammatory, Analgesic and Antioxidant Potential of New (2S,3S)-2-(4-isopropylbenzyl)-2-methyl-4-nitro-3-phenylbutanals and Their Corresponding Carboxylic Acids through In Vitro, In Silico and In Vivo Studies” (Molecules, 2022).

Several values for one entry are separate records, joined by “and”; a condition that tells them apart may be missing. Equal values may be shown once. Marks after values point to notes of the source that are not given here.

In test [1] the test system is mice. As to the kind of experiment: Hot plate test. Also noted: species or system Swiss albino mice. Particulars: mouse, in vivo.
The test system of test [2] is mice. As to the kind of experiment: Formalin-induced paw-licking test. Particulars: 5 mg/kg i.p.
Method: Swiss albino mice of both sexes with an average weight of 30 to 35 g were obtained from the respective section of NIH (National Institute of Health) Islamabad, Pakistan.
The early phase was initially five minutes, while the late phase was 15-30 min. In both the phases, the mice were under observation for licking. As per the protocols, naloxone (2 mg/kg), indomethacin (10 mg/kg) and morphine (5 mg/kg) were used [28].
The test system of test [3] is albino mice. As to the kind of experiment: Carrageenan-induced inflammation. In kind it is in vivo, Swiss albino mice. Particulars: standard aspirin (100 mg/kg in method). How it is done: After the acute toxicity studies, the carrageenan-induced inflammation assay was performed on the compounds having a safety profile within limit. Forty (40) albino mice of both sexes were alienated into five different groups, with eight mice in each group. Group I was tagged as the negative control group and was administered dimethylsulfoxide (10 mL/kg, 10% v/v) and phosphate buffer (150 µL). Group II was tagged as the standard/positive control group and received a dose of aspirin (100 mg/kg in 0.9% normal saline). The remaining groups (III, IV and V) were tagged as experimental groups and received synthesized compounds (25, 50 and 100 mg/kg in DMSO) and Tween-80 in normal saline. After half an hour, carrageenan suspension (0.05 mL, 1% w/v in saline) was injected into the animals. After the injection of the irritant/carrageenan, the inflammation in the paws was measured by a plethysmometer in intervals (1 to 5 h). The inflammation in the paws of animals in different groups was compared with that of the vehicle, and the percent anti-inflammatory activities were recorded as per the standard method.

In test [4] the test system is albino mice. As to the kind of experiment: Acetic acid induced writhing test. The class given is in vivo, Swiss albino mice. Particulars: standard drug 10 mg/kg. How it is done:
The acetic induced analgesic assay on the compounds FM10 and FM12 was performed to determine the role of the peripheral pathway. The albino mice of both sexes were divided into two groups. Compounds FM10 and FM12 were administered to both the groups in doses of 25 and 50 mg/kg. After 1 h, acetic acid was injected intraperitoneally in the strength of 10 mL/kg. The negative control was Tween 80 1% solution in the strength of 10 mL/kg. […] The activities in animals were determined from the number of stretchings and writings.
Background: An intraperitoneal irritant provokes the stretching counted in writhing tests.

With `CN1CC[C@]23c4c5ccc(O)c4O[C@H]2[C@@H](O)C=C[C@H]3[C@H]1C5` [Morphine], the “Reaction time on hot plate” value in test [1] is 12.88 ± 0.26 min and 12.31 ± 0.62 min and 11.86 ± 0.87 min. Moreover, in test [2] (early phase), the “Percent (%) inhibition, 0–5 min” value is 88.64 *** % and the “Time spent (licking) 0–5 min” value was 6.50 ± 0.78 s. The “Percent (%) inhibition, 0–5 min” value in test [2] (early phase, listed as morphine) is 88.64%. For the same molecule, in test [2] (late phase), the “Percent (%) inhibition, 15–30 min” value is 93.81 *** % and the “Time spent (licking) 15–30 min” value was 4.83 ± 0.62 s. Moreover, the “Percent (%) inhibition, 15–30 min” value in test [2] (late phase, listed as morphine) came to 93.81%.
On to `CC(=O)Oc1ccccc1C(=O)O` [aspirin, acetylsalicylic acid], for which the “Anti-inflammatory activity, carrageenan assay” value was 52.77% in test [3] (first hour) and 61.43% in test [3] (fourth hour). Further, the “Mean inhibition of writhes” value in test [4] stood at 73.01%.
